This is an account of results in ChEMBL document CHEMBL1145159 (J Med Chem, 2005).

“And” between values parts separate entries of the source, which are not always exact repeats. Equal values may be shown once. Peptide text beside a SMILES is read from it. Some results are limits rather than exact numbers.

Assay [1] can be described thus: Inhibitory concentration against Nicotinic acetylcholine receptor alpha-6-alpha-3-beta-2; Range is 0.7-1 nM. On the set-up: species or system Homo sapiens.
The nature of assay [2]: Inhibitory concentration against Nicotinic acetylcholine receptor alpha6-beta4; Range is 0.7-1 nM. Further details: species or system Homo sapiens.
Assay [3] addresses T1, Neuronal acetylcholine receptor; alpha4/beta2 (Homo sapiens, UniProt P17787+P43681). The assay is described as follows: Maximal response against Nicotinic acetylcholine receptor alpha4-beta2. It is filed as protein-complex assay.
The target of assay [4] is Neuronal acetylcholine receptor; alpha2/beta4 (Rattus norvegicus) (UniProt P12389+P12392). Nature of the assay: Maximal response against Nicotinic acetylcholine receptor alpha2-beta4 in rat mid brain slices.
Assay [5] has as its target T2, Neuronal acetylcholine receptor; alpha3/beta4 (Rattus norvegicus) (UniProt P04757+P12392). The assay is described as follows: Maximal response against Nicotinic acetylcholine receptor alpha3-beta4 in rat mid brain slices.
In assay [6] the target is T3, Neuronal acetylcholine receptor; alpha4/beta2 (Rattus norvegicus) (UniProt P09483+P12390). The assay is described as follows: Maximal response against Nicotinic acetylcholine receptor alpha4-beta2 in rat mid brain slices.
Assay [7] deals with Neuronal acetylcholine receptor; alpha4/beta4 (Rattus norvegicus) (UniProt P09483+P12392). Nature of the assay: Maximal response against Nicotinic acetylcholine receptor alpha4-beta4 in rat mid brain slices.
Assay [8] has as its target Neuronal acetylcholine receptor subunit alpha-7 (Rattus norvegicus, UniProt Q05941). The assay is described as follows: Effective concentration against Nicotinic acetylcholine receptor alpha 7 in rat mid brain slices.
The target of assay [9] is Neuronal acetylcholine receptor; alpha3/beta2 (Rattus norvegicus, UniProt P04757+P12390). Nature of the assay: Effective concentration against Nicotinic acetylcholine receptor alpha3-beta2 in rat mid brain slices.
The target in assay [10] is T4, Neuronal acetylcholine receptor subunit alpha-7 (Homo sapiens, UniProt P36544). Nature of the assay: Effective concentration against Nicotinic acetylcholine receptor alpha 7.
Assay [11] has as its target Neuronal acetylcholine receptor; alpha3/beta4 (Homo sapiens, UniProt P30926+P32297). Nature of the assay: Effective concentration against Nicotinic acetylcholine receptor alpha3-beta4. The format is protein-complex assay.
Assay [12] concerns the target T5, Neuronal acetylcholine receptor; alpha4/beta4 (Homo sapiens, UniProt P30926+P43681). The assay is described as follows: Effective concentration against Nicotinic acetylcholine receptor alpha4-beta4. The format is protein-complex assay.
The target of assay [13] is T6, Neuronal acetylcholine receptor; alpha2/beta4 (Homo sapiens, UniProt P30926+Q15822). The assay is described as follows: Maximal response against Nicotinic acetylcholine receptor alpha2-beta4. It is filed as protein-complex assay.
In assay [14] the target is T5, Neuronal acetylcholine receptor; alpha4/beta4. Nature of the assay: Maximal response against Nicotinic acetylcholine receptor alpha4-beta4. It is filed as protein-complex assay.
Assay [15] concerns the target Neuronal acetylcholine receptor subunit alpha-7 (Rattus norvegicus) (UniProt Q05941). Nature of the assay: Maximal response against Nicotinic acetylcholine receptor alpha 7.
In assay [16] the target is T6, Neuronal acetylcholine receptor; alpha2/beta4. The assay is described as follows: Maximal response against Nicotinic acetylcholine receptor alpha2-beta4 expressed in HEK293 cells. It is filed as cell-based.
Assay [17] deals with T7, Neuronal acetylcholine receptor; alpha3/beta2 (Homo sapiens, UniProt P17787+P32297). The assay is described as follows: Maximal response against Nicotinic acetylcholine receptor alpha3-beta2 expressed in HEK293 cells. It is filed as cell-based.
The target of assay [18] is T1, Neuronal acetylcholine receptor; alpha4/beta2. Nature of the assay: Maximal response against Nicotinic acetylcholine receptor alpha4-beta2 expressed in HEK293 cells. It is filed as cell-based.
Assay [19] can be described thus: Effective concentration against Nicotinic acetylcholine receptor alpha4-beta2 expressed in xenopus oocytes. The format is cell-based. Conditions: oocyte.
Assay [20] is described as follows: Effective concentration against Nicotinic acetylcholine receptor alpha2-beta4 expressed in xenopus oocytes. The format is cell-based. Conditions: oocyte.
Assay [21] can be described thus: Effective concentration against Nicotinic acetylcholine receptor alpha3-beta4 expressed in xenopus oocytes. Conditions: oocyte. It is filed as cell-based.
Assay [22] is described as follows: Effective concentration against Nicotinic acetylcholine receptor alpha4-beta4 expressed in xenopus oocytes. It is filed as cell-based. Conditions: oocyte.
Assay [23] concerns the target T6, Neuronal acetylcholine receptor; alpha2/beta4. Nature of the assay: Effective concentration against Nicotinic acetylcholine receptor alpha2-beta4. The format is protein-complex assay.
Assay [24] deals with T7, Neuronal acetylcholine receptor; alpha3/beta2. Nature of the assay: Effective concentration against Nicotinic acetylcholine receptor alpha3-beta2. The format is protein-complex assay.
Assay [25] addresses T1, Neuronal acetylcholine receptor; alpha4/beta2. The assay is described as follows: Effective concentration against Nicotinic acetylcholine receptor alpha4-beta2. The format is protein-complex assay.
Assay [26] has as its target Neuronal acetylcholine receptor; alpha2/beta2 (Homo sapiens, UniProt P17787+Q15822). Nature of the assay: Inhibitory concentration against Nicotinic acetylcholine receptor alpha2-beta2; Range is 0.3-1.5 nM. The format is protein-complex assay.
Assay [27] concerns the target T7, Neuronal acetylcholine receptor; alpha3/beta2. Nature of the assay: Inhibitory concentration against Nicotinic acetylcholine receptor alpha3-beta2; Range is 0.3-1.5 nM. It is filed as protein-complex assay.
In assay [28] the target is T6, Neuronal acetylcholine receptor; alpha2/beta4. Nature of the assay: Inhibitory concentration against Nicotinic acetylcholine receptor alpha2-beta4; Range is 0.3-1.5 nM. It is filed as protein-complex assay.
In assay [29] the target is T1, Neuronal acetylcholine receptor; alpha4/beta2. The assay is described as follows: Inhibitory concentration against Nicotinic acetylcholine receptor alpha4-beta2; Range is 0.3-1.5 nM. The format is protein-complex assay.
Assay [30] has as its target T5, Neuronal acetylcholine receptor; alpha4/beta4. The assay is described as follows: Inhibitory concentration against Nicotinic acetylcholine receptor alpha4-beta4; Range is 0.3-1.5 nM. The format is protein-complex assay.
Assay [31] concerns the target T4, Neuronal acetylcholine receptor subunit alpha-7. The assay is described as follows: Inhibitory concentration against Nicotinic acetylcholine receptor alpha7; Range is 0.3-1.5 nM.
A short description of assay [32]: Inhibitory concentration against Nicotinic acetylcholine receptor alpha-6-alpha-4-beta-4; Range is 0.7-1 nM.
The nature of assay [33]: Inhibitory concentration against Nicotinic acetylcholine receptor alpha-6-alpha-3-beta-2; Range is 0.5-8 nM. On the set-up: species or system Homo sapiens.
The target of assay [34] is T7, Neuronal acetylcholine receptor; alpha3/beta2. The assay is described as follows: Inhibitory concentration against Nicotinic acetylcholine receptor alpha3-beta2; Range is 0.5-8 nM. It is filed as protein-complex assay.
In assay [35] the target is T4, Neuronal acetylcholine receptor subunit alpha-7. Nature of the assay: Inhibitory concentration against Nicotinic acetylcholine receptor alpha7; Range is 0.5-8 nM.
In assay [36] the target is T1, Neuronal acetylcholine receptor; alpha4/beta2. Nature of the assay: Inhibitory concentration against Nicotinic acetylcholine receptor alpha4-beta2; Range is 0.5-8 nM. The format is protein-complex assay.
Assay [37] addresses Neuronal acetylcholine receptor subunit alpha-7 (Rattus norvegicus) (UniProt Q05941). Nature of the assay: Maximal response against rat neural Nicotinic acetylcholine receptor alpha 7.
Assay [38] addresses Neuronal acetylcholine receptor; alpha3/beta2 (Rattus norvegicus) (UniProt P04757+P12390). The assay is described as follows: Maximal response against rat neural Nicotinic acetylcholine receptor alpha3-beta2. It is filed as protein-complex assay.
Assay [39] deals with T2, Neuronal acetylcholine receptor; alpha3/beta4 (Rattus norvegicus). Nature of the assay: Maximal response against rat neural Nicotinic acetylcholine receptor alpha3-beta4. The format is protein-complex assay.
Assay [40] has as its target T3, Neuronal acetylcholine receptor; alpha4/beta2 (Rattus norvegicus). Nature of the assay: Maximal response against rat neural Nicotinic acetylcholine receptor alpha4-beta2. The format is protein-complex assay.

T5 sequence (P30926 whole entry): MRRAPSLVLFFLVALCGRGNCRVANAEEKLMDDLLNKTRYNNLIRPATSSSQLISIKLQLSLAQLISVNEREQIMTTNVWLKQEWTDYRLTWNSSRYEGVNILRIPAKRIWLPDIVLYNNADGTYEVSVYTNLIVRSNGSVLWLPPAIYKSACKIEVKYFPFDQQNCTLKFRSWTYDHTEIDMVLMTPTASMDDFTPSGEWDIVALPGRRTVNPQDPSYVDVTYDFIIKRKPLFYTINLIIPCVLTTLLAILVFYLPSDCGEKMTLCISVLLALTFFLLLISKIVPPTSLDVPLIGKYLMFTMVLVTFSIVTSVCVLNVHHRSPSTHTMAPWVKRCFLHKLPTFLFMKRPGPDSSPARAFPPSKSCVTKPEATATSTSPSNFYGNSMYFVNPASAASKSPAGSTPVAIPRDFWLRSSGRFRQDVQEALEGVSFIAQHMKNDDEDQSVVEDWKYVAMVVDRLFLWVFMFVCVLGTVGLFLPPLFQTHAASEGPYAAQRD
T5 sequence (P43681 whole entry): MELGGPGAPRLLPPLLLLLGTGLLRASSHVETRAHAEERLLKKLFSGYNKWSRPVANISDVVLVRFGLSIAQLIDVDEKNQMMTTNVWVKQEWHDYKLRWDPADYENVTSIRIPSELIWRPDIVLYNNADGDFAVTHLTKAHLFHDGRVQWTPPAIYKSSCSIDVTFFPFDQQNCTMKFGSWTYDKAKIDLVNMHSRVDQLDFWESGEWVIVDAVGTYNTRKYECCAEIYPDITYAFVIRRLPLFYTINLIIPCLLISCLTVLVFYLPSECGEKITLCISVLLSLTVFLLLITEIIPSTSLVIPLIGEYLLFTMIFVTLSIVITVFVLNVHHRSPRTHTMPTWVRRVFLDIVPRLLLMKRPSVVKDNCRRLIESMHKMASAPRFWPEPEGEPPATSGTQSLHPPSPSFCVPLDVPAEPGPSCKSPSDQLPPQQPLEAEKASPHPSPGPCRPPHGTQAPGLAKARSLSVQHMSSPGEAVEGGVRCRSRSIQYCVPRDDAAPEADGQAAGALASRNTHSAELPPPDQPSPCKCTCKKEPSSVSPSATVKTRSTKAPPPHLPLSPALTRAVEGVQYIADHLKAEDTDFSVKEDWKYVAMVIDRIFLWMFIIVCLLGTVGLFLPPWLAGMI
T4 sequence (P36544 whole entry): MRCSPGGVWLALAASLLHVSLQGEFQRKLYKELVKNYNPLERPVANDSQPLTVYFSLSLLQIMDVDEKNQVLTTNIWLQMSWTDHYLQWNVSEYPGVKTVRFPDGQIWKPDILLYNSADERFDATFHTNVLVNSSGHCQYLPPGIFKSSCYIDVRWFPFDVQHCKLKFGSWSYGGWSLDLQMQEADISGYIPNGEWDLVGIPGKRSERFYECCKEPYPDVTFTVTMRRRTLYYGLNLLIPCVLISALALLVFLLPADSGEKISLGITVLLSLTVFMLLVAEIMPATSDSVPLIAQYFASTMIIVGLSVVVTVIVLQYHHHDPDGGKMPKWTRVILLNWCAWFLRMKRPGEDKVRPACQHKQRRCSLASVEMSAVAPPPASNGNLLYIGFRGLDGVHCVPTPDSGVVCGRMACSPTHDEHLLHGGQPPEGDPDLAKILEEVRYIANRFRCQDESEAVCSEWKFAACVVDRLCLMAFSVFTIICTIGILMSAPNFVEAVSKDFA
Neuronal acetylcholine receptor subunit alpha-7 (Rattus norvegicus), sequence (Q05941 whole entry): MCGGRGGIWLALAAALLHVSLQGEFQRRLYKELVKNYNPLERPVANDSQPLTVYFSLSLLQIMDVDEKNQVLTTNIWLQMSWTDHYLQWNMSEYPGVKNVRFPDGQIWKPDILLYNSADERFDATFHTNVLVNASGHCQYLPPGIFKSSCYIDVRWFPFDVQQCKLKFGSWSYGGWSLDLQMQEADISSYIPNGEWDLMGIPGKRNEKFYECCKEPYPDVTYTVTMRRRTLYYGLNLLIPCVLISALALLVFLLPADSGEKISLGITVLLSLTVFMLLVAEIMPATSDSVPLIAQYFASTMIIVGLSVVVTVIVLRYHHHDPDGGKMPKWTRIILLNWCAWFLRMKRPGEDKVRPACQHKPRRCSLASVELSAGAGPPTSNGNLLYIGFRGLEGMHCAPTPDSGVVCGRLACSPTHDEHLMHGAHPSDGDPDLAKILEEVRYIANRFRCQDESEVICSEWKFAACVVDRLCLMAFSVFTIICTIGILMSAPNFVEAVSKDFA
T7 sequence (P17787 whole entry): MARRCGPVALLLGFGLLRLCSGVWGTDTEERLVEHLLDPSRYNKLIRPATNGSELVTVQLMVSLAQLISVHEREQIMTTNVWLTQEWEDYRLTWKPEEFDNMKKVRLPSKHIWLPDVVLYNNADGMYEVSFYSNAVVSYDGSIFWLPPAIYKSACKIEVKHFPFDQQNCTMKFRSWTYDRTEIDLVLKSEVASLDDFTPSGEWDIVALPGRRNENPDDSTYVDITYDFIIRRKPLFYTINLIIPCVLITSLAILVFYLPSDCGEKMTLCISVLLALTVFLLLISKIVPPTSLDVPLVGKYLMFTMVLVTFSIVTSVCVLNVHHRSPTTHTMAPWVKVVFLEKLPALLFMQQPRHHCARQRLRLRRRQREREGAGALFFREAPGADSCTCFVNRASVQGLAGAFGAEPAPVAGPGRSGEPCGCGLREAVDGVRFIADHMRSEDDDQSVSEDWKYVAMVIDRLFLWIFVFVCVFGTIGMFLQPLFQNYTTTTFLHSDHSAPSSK
T7 sequence (P32297 whole entry): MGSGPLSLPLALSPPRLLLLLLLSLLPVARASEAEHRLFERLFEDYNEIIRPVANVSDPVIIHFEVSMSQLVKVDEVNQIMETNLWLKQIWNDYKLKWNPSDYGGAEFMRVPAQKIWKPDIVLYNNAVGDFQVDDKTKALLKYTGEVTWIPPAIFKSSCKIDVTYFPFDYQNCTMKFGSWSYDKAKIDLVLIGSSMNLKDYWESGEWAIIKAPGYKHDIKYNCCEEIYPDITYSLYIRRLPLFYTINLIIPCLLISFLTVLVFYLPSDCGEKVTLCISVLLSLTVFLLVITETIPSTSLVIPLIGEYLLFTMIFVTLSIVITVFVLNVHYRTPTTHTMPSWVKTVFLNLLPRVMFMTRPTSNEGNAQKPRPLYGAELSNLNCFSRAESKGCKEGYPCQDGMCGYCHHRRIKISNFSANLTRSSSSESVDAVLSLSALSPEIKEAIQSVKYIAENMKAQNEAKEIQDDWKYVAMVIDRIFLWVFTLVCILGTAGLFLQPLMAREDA
T1 sequence (P17787 whole entry): as the sequence (P17787 whole entry) above
T1 sequence (P43681 whole entry): as the sequence (P43681 whole entry) above
T6 sequence (P30926 whole entry): as the sequence (P30926 whole entry) above
T6 sequence (Q15822 whole entry): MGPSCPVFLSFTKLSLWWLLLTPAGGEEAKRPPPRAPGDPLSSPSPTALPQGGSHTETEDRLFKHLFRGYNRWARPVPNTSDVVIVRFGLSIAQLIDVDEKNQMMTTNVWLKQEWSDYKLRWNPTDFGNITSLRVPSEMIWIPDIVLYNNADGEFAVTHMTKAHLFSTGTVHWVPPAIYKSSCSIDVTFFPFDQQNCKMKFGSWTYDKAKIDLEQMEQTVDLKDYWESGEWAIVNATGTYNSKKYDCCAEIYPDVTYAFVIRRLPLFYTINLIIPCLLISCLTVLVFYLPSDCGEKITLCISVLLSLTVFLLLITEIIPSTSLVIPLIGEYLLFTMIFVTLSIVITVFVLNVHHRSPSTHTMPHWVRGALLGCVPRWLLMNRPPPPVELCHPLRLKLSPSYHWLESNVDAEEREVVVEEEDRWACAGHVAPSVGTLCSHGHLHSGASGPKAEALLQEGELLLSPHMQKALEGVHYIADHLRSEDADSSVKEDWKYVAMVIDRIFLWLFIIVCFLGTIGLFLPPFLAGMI
Neuronal acetylcholine receptor; alpha3/beta4, sequence (P30926 whole entry): as the sequence (P30926 whole entry) above
Neuronal acetylcholine receptor; alpha3/beta4, sequence (P32297 whole entry): as the sequence (P32297 whole entry) above
Neuronal acetylcholine receptor; alpha3/beta2 (Rattus norvegicus, UniProt P04757+P12390), sequence (P04757 whole entry): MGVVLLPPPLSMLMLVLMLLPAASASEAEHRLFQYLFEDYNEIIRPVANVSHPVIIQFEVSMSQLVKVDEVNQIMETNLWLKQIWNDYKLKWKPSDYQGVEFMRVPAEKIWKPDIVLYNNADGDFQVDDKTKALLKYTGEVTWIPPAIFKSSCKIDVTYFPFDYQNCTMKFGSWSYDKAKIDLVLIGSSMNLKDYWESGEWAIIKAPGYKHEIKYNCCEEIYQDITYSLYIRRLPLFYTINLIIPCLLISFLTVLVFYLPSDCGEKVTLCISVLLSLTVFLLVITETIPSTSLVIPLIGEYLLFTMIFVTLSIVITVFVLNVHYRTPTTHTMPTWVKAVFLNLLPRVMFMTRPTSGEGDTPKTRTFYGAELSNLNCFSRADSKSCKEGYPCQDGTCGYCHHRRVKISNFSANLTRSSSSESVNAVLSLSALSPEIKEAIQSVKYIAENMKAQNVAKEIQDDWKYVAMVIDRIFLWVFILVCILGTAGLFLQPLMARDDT
Neuronal acetylcholine receptor; alpha3/beta2 (Rattus norvegicus, UniProt P04757+P12390), sequence (P12390 whole entry): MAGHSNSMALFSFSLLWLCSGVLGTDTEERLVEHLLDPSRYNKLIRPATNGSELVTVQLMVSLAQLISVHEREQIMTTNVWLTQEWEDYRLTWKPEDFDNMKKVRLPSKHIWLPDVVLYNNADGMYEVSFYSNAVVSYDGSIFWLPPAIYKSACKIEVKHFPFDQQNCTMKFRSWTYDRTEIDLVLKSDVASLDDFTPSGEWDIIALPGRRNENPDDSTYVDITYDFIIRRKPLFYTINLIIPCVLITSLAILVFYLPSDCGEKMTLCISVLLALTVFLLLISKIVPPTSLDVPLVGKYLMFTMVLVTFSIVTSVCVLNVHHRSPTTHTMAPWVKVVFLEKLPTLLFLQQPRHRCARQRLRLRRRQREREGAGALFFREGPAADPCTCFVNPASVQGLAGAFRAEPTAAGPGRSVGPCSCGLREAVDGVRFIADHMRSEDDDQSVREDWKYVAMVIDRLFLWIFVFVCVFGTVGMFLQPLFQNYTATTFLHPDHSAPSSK
Neuronal acetylcholine receptor subunit alpha-7 (Rattus norvegicus, UniProt Q05941), sequence (Q05941 whole entry): as the sequence (Q05941 whole entry) above

The IC50 is the concentration at which inhibition is half-maximal. Low values mean inhibition by little substance, high ones a need for much substance. As to `CC[C@H](C)[C@H](NC(=O)[C@H](CCC(N)=O)NC(=O)[C@@H]1CCCN1C(=O)[C@H](CC(N)=O)NC(=O)[C@H](Cc1c[nH]cn1)NC(=O)[C@@H](NC(=O)[C@@H](NC(=O)[C@H](CS)NC(=O)[C@@H](NC(=O)[C@@H]1CCCN1C(=O)[C@H](CC(N)=O)NC(=O)[C@H](CO)NC(=O)[C@H](CS)NC(=O)[C@H](CS)NC(=O)[C@@H]1CCCN1C(=O)[C@@H](N)CC(=O)O)C(C)C)[C@@H](C)O)C(C)C)C(=O)N[C@@H](CS)C(N)=O` (H-DPCCSNPVCTVHNPQIC-NH2), the 50% inhibitory concentration (IC50) in assay [1] and in assay [2] was 1 nM each time.

As usually defined, the EC50 is the concentration that produces a half-maximal response. A high value points to weaker potency. On to `CN[C@@H](C)C/C=C/c1cncc(OC(C)C)c1` [ISPRONICLINE], for which the Rmax in assay [3] was determined as 60%; in [4] it was 56%; in assay [5] it was 24%; in [6], 33%; in assay [7] it was 42%. Also, the concentration for a half-maximal effect (EC50) in [8] is > 100000 nM; in assay [9], > 100000 nM; in [10] it was > 10000 nM; in assay [11], > 10000 nM; in assay [12], > 10000 nM.

`CN1CCC[C@H]1c1cccnc1` [NICOTINE]: the Rmax is 114% in assay [13]; 73% in assay [3]; 100% and 85% and 108% in assay [14]; 74% and 97% in assay [15]; 100% in assay [16]; 100% in assay [17]. The Rmax in assay [18] was 3.5%. Moreover, the EC50 was 5500 nM in [19], 21000 nM in [20], 80000 nM in [21] and 5000 nM in assay [22].

The compound `c1ccc(-c2cnc3c(c2)CC2(CN4CCC2CC4)O3)cc1` (centres undefined) returned an Rmax in [15] of 85%. Further, the EC50 in [23], in assay [24], in assay [11], in assay [25] and in [12] was > 100000 nM in each case.

On to `C[C@H](NC(=O)[C@H](Cc1ccccc1)NC(=O)[C@H](CS)NC(=O)[C@@H]1CCCN1C(=O)[C@@H]1CCCN1C(=O)[C@H](Cc1ccc(O)cc1)NC(=O)[C@H](CO)NC(=O)[C@H](CS)NC(=O)[C@H](CS)NC(=O)CN)C(=O)N[C@H](C(=O)N[C@@H](CC(N)=O)C(=O)N1CCC[C@H]1C(=O)N[C@@H](CC(=O)O)C(=O)N[C@H](C=O)CS)[C@@H](C)O`, for which the half-inhibitory concentration (IC50) in [26], in [27], in assay [28], in assay [29], in [30] and in [31] was 0.75 nM each time.

As to `CC(C)C[C@H](NC(=O)[C@H](CC(N)=O)NC(=O)[C@H](CO)NC(=O)[C@H](Cc1c[nH]cn1)NC(=O)[C@H](CCC(=O)O)NC(=O)[C@H](CC(C)C)NC(=O)[C@H](Cc1c[nH]cn1)NC(=O)[C@H](CS)NC(=O)[C@@H](NC(=O)[C@@H]1CCCN1C(=O)[C@H](CC(N)=O)NC(=O)[C@H](CO)NC(=O)[C@H](CS)NC(=O)[C@H](CS)NC(=O)CN)C(C)C)C(=O)N[C@@H](CS)C(N)=O`, the IC50 in assay [32], in [33], in assay [34], in [35] and in assay [36] was 8 nM each time.

On to `Cc1cc([C@@H]2CCN2C)on1`, for which the Rmax in [37] was 50%; in assay [38], 119%; in assay [39], 50%; in assay [40], 55%.
